From US11787781B2, “Inhibiting ataxia telangiectasia and RAD3-related protein (ATR)” (Celator Pharmaceuticals, Inc., priority 2016, dated 2023)

Key:
pKa = assay type: physicochemical; conditions: method not stated
[1] = Loading of ATR inhibitors into TEA-SOS liposomes and liposome characterization; assay type: physicochemical; conditions: for Loading efficiency (%) / Drug/lipid ratio after loading: TEA-SOS liposomes; for Loading efficiency (%): Compound 1 at ratio before loading 379; for Drug/lipid ratio after loading: input ratio before loading (Compound 1: 379); for Liposome size, (mean ± SD) nm: liposomes loaded with the ATR inhibitor
Protocol: Sodium sucrose octasulfate (equivalent weight 144.8) is a sodium salt of sucrose derivate in which all hydroxyl groups have formed sulfuric acid esters. Sixty gram of sucrose octasulfate (SOS) sodium salt were dissolved in 150 ml of di water, heated with shaking (swirling) of a 50° C. water bath. The solution was passed through a column packed with sulfonated polystyrene divinylbenzene copolymer cation exchange resin beads (Dowex 50Wx8-100-200 mesh, Dow Chemical Co.). […] The eluent was monitored using a conductivity detector. The SOS fraction was collected corresponding to conductivity peak and immediately titrated with neat triethylamine (TEA) solution to pH 6-6.5. The solution was analyzed for residual sodium by potentiometry using a sodium-sensitive electrode and for SOS concentration using a refractometer. The solution having residual sodium less than 0.25% was diluted with di water to final SOS concentration 1.1 M and then sterile-filtered using Millipore 0.22 μm Steri-Top filter.
Cholesterol (Chol) was purchased from Avanti Polar Lipids, Alabaster, Ala., USA, hydrogenated soy phosphocholine (HSPC) and methoxy-poly(ethylene glycol)-1,2-distearoyl-sn-glyceryl (PEG2000-DSG) were obtained from Lipoid GmbH, Ludwigshafen, Germany.
Chol, HSPC and PEG2000-DSG were co-dissolved in 100% ethanol (200-proof, Sigma cat #: 459828) at a molar ratio of 3:2:0.15 at 65° C. The solution of TEA-SOS (10 times the volume of added ethanol) was mixed with the lipid solution at 60-65° C. and stirred at this temperature until a homogeneous milky suspension of multilamellar vesicles was formed. This suspension was extruded 3 times through 5 stacked polycarbonate track-etched filters (Corning Nuclepore) with the pore size of 100 nm using argon pressure extruder (Lipex Biomembranes) at 60-65° C., and resulting unilamellar liposomes were quickly chilled in ice and then stored at 4-6° C. before use. Concentration of phospholipids was measured by phosphate assay and particle diameter was recorded on a Malvern Nanosizer.
Prior to drug loading, the TEA-SOS gradient was created by removing excess of un-trapped TEA-SOS using gel-chromatography (Sepharose CL-4B, Pharmacia). Osmolarity of liposomes was balanced using 50% dextrose solution. Final dextrose concentration was 15%.
ATR inhibitors were dissolved in 15% dextrose solutions in di water by titration with 1 M HCl and heating at 45° C. and then filtered with 0.2 micron NALGENE 13 mm Syringe Filters. Drug concentration in the solution was detected by HPLC. […]
The liposome-drug mixture was incubated with occasional agitation for 30 minutes at 65° C. The incubation mixture was quickly cooled down and incubated for 10 minutes at 0° C., then allowed to attain ambient temperature. Un-encapsulated drug was removed by gel chromatography on Sephadex G-25 (Amersham Pharmacia) eluted with HBS-6.5 buffer (5 mM 2-(4-(2-hydroxyethyl)-piperazino)-ethylsulfonic acid (HEPES), 144 mM NaCl, pH 6.5). Liposome fractions eluted in the void volume were combined, sterilized by 0.2 micron filtration, and stored at 4-6° C. before use. The liposomes were characterized by lipid concentration, drug concentration, and particle size (Table 2).

ATR/ATRIP(h) = ATR/ATRIP(h) (Homo sapiens (Human), UniProt Q13535); assay: Eurofins ATR/ATRIP HTRF assay, p53 Ser15 phosphorylation; assay type: biochemical; design: key to Top / Bottom: % of DMSO positive control activity; conditions: ATP 10 μM; for Hill: four parameter logistic fit; for Bottom / Top: four parameter logistic fit of % control activity
Protocol: An EC50 determination was conducted for the supplied set of compounds against the kinase ATR/ATRIP(h), using a linear enzyme concentration in the Eurofins ATR/ATRIP HTRF assay using GST tagged full length p53 as the substrate.
ATR/ATRIP phosphorylation of p53 on Ser15 was measured via formation of an energy transfer complex consisting of a Europium-labelled anti-phospho Ser15 p53 antibody and an anti-GST-d2 antibody. All data points were performed in duplicate with DMSO controls and EDTA blanks.
ATR/ATRIP(h) was pre-diluted in 25 mM HEPES pH 8.0, 0.01% Brij-35, 1% Glycerol, 5 mM DTT, 1 mg/mL BSA and assayed in 25 mM HEPES pH 8.0, 0.01% Brij-35, 1% Glycerol, 10 mM MnCl2 using 30 nM GST, cMyc p53-(hu,FL) as the substrate. The reaction was initiated with the addition of ATP to a final concentration of 10 μM.
The individual replicates were expressed in terms of the % of the DMSO positive control activity. The mean activity (% control) of each inhibitor concentration was plotted against the inhibitor concentration, and EC50 values were determined using […] PRISM.
The data expressed as % control activity were plotted against inhibitor concentration, and fitted to a four parameter logistic using […] PRISM. Graphs for each compound are shown alongside the data in the accompanying Excel report.

ATM(h) = ATM(h) (Homo sapiens (Human), UniProt Q13315); assay: ATM activity, […] KINASEPROFILER; assay type: biochemical; conditions: estimated IC50
Chain of ATM(h) (Q13315 whole entry): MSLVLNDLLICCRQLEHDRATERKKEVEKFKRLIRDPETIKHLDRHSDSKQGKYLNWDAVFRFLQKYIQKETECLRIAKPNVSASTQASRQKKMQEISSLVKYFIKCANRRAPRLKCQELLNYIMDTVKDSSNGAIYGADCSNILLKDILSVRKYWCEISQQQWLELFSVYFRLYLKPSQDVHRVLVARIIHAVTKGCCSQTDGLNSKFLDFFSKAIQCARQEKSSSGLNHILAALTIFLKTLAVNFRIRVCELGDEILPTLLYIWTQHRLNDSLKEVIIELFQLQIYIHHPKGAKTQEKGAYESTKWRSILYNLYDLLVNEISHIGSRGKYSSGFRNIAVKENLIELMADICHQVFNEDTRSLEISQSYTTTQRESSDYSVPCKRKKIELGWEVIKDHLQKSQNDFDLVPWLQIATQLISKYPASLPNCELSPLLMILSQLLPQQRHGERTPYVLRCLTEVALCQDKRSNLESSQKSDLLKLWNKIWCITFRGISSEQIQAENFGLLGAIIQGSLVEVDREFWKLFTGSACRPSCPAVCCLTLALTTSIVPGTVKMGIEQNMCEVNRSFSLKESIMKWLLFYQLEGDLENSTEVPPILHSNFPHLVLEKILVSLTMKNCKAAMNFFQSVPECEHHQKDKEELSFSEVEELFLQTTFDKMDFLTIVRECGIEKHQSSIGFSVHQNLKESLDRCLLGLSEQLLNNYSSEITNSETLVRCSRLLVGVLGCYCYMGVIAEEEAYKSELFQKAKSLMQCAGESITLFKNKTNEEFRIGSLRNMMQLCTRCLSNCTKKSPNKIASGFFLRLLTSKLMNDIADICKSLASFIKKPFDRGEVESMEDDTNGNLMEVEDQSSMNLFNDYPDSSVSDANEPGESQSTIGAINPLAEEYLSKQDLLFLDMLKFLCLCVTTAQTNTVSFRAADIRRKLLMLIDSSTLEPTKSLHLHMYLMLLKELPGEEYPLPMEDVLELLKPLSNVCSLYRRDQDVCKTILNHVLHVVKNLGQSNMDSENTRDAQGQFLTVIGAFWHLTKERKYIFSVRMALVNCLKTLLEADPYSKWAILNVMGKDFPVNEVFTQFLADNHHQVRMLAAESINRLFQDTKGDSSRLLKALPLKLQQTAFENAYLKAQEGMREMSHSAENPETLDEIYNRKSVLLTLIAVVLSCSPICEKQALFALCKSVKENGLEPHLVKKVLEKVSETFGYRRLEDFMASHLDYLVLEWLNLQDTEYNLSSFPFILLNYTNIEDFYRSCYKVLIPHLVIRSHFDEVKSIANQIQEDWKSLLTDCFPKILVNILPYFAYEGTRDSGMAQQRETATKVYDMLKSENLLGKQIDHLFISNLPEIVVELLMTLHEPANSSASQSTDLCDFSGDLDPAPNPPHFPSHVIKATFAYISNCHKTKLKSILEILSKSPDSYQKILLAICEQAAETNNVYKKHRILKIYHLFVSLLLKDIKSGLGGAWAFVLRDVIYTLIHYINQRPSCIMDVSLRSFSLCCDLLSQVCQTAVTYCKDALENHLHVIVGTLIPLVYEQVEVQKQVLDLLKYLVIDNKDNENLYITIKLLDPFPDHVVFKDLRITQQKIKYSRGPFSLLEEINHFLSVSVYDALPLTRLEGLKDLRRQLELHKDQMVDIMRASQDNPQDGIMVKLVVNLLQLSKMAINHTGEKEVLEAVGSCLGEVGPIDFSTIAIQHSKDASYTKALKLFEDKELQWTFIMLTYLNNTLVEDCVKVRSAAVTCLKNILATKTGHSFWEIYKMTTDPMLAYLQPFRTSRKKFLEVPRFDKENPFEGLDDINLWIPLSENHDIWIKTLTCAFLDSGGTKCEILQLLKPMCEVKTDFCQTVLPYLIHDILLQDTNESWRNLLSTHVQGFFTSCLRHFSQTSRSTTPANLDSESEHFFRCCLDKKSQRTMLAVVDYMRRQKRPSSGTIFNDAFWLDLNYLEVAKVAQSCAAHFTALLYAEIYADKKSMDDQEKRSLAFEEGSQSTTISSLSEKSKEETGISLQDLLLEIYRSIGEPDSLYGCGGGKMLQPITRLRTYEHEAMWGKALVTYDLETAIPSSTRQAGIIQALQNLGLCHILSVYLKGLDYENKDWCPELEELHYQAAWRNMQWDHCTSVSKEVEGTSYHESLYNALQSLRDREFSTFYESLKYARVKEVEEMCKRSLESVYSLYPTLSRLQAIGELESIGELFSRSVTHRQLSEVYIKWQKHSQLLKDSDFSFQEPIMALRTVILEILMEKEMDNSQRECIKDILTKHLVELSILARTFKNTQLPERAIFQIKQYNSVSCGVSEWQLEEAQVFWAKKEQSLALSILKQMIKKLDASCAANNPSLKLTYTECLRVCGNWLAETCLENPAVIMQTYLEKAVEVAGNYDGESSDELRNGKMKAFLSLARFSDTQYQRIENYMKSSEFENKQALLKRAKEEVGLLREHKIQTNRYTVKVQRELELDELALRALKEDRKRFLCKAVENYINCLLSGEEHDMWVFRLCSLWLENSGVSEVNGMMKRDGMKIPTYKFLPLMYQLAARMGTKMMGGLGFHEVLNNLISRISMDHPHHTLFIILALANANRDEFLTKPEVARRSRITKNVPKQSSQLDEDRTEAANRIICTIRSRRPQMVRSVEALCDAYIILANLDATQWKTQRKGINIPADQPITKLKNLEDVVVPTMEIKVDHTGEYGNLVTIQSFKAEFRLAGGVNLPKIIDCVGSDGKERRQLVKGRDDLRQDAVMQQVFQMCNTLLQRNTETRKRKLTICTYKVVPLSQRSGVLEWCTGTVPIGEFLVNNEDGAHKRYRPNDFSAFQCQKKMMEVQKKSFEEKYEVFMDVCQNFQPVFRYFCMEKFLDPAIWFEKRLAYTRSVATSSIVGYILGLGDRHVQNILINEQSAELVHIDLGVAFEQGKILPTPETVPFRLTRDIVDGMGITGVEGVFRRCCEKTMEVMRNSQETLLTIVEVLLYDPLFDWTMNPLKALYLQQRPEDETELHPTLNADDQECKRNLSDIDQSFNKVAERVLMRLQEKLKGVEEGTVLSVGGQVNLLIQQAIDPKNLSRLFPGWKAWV
Excerpt: Estimated IC50 values are as follows (obtained using […] KINASEPROFILER): […]

[2] = system: total and phospho-ATR (S428), phospho-CHK1 (S317 and S345) in DMS-114 cells; assay: Western blot of total and phospho-ATR, phospho-CHK1 in DMS-114 cells; assay type: cell-based
Protocol: Whole cell protein lysates were generated after 1, 3, 6 and 24 hours using a 2% SDS containing cell lysis buffer and stored at −80° C. until all samples were collected and run together at the same time for the WesternBlot analysis. The following proteins and phosphoproteins of interest were detected by antibodies purchased from Cell Signaling Technology (see methods and materials part below): total and phospho-ATR (S428), phospho-CHK1 (S317 and S345), γH2AX, beta-actin.
All target and phospho-specific antibodies were purchased from Cell Signaling and/or Epitomics and were used at 1:1000 dilutions. A list of all antibodies is available in Table 6. Standard antibody based Western blot and immunohistochemistry protocols were used. Briefly, 2% SDS based cell lysis buffer was used to collect whole cell lysate for Western Blotting. Secondary antibodies and staining protocols were purchased and followed regarding LiCor Biosciences and/or BD Bioscience.
Cells were grown and treated in a 6 cm dish scale. To harvest cells, medium was removed and quickly replaced by ice cold PBS. PBS was then replaced with 250 μL of 2% SDS lysis buffer. After five minutes of incubation, the lysed cells were scraped off and loaded onto a cell lysate homogenizer microcentrifuge spin-column (QIAshredder, Qiagen, Cat.-Nr. 79656). The filtrate was then loaded onto a 0.2 μm centrifugal filter column (Nanosep MF 0.2_m, Pall, Cat.-Nr. ODM02C34). The lysates were then stored at −80° C.

U2OS cells = assay: Cell death and growth assay, U2OS cells; assay type: cell-based
Protocol: U20S and all other cells were grown in (RPMI) supplemented with 10% fetal bovine serum (FBS) and antibiotics. Imaging and time-lapse compatible NucLight red cell lines were generated as recommend by Essen Bioscience Inc. using lentiviral particles, infection and puromycin selection protocols.
The results were compared back to a prediction of cell growth and death with the combination of the two compounds (FIG. 18A).
In all cases, relative cell proliferation is reduced with the combinations compared to the drugs alone (FIG. 21B-C).

NCI-H520 cells = assay: Cell number over time, NCI-H520 cells; assay type: cell-based; conditions: 1 μM in combination with SN38 0.2 μM
NCI-H596 cells = assay: Cell number over time, NCI-H596 cells; assay type: cell-based; conditions: 1 μM in combination with SN38 0.2 μM
MS-751 cells = assay: In vitro growth assay, MS-751 cells; assay type: cell-based; conditions: in combination with SN38
SUM149 cells = assay: Cell cycle stage profile, SUM149 cells; assay type: cell-based; conditions: 24 hours after addition of SN38 and ATR inhibitor

Structure (SMILES) | pKa (pKa) | loading efficacy ([1]; Compound 1: at drug to lipid ratio higher than 400 g/mol) | Loading efficiency (%) [1] [%] | Drug/lipid ratio after loading [1] | Drug/lipid ratio after loading (loadability) ([1]; drug/lipid ratio before loading 600-800) | Liposome size, (mean ± SD) nm [1] [nm] | EC50 (ATR/ATRIP(h)) [nM] | Hill (ATR/ATRIP(h)) | Bottom (ATR/ATRIP(h)) | Top (ATR/ATRIP(h)) | IC50 (ATM(h)) [nM] | phosphorylation signal of CHK1 (S317 and S345) induced by Gemcitabine ([2]; ATR inhibitor 1 μM added to Gemcitabine 16 nM) | total and phospho-ATR signal ([2]; ATR inhibitor 1 μM, alone or with Gemcitabine 16 nM, up to 24 hrs) | cell numbers over time vs either agent in isolation (U2OS cells; 1 μM in combination with SN38 0.2 μM) | cell death vs either compound alone (U2OS cells; Compound A (1 μM) combined with Gemcitabine (0.04 μM)) | cell numbers over time vs either agent in isolation (NCI-H520 cells) | cell numbers over time vs either agent in isolation (NCI-H596 cells) | cell number over time vs either compound alone (MS-751 cells) | cell cycle stage profile vs controls (SUM149 cells) | phospho-CHK1 (S317 and S345) signaling ([2]; Gemcitabine 16 nM alone, over 24 hrs)
CCN(CC)CCS(=O)(=O)c1ccc(-c2cnc(N)c(C(=O)Nc3ccccc3)n2)cc1 [Compound 2, 3-amino-6-(4-((2-(diethylamino)ethyl)sulfonyl)phenyl)-N phenylpyrazine-2-carboxamide] | 7.46 |  | 100 ± 5 | 639 ± 22 |  | 130 ± 34 | 140 | −0.911 | 1 | 94 | 4820 |  |  |  |  |  |  |  |  | 
CN1CCN(CCS(=O)(=O)c2ccc(-c3cnc(N)c(C(=O)Nc4ccccc4)n3)cc2)CC1 [Compound 3, 3-amino-6-(4-((2-(4-methylpiperazin-1-yl)ethyl)sulfonyl)phenyl)-N-phenylpyrazine-2-carboxamide] | 7.73 |  | 97 ± 5 | 628 ± 6 |  | 120 ± 27 | 196 | −0.776 | −3 | 98 | > 10000 |  |  |  |  |  |  |  |  | 
CCN(CC)C1CCN(CCS(=O)(=O)c2ccc(-c3cnc(N)c(C(=O)Nc4ccccc4)n3)cc2)CC1 [Compound 6, 3-amino-6-(4-((2-(4-(diethylamino)piperidin-1 yl)ethyl)sulfonyl)phenyl)-N-phenylpyrazine-2-carboxamide] | 9.81 |  | 74 ± 0.3 | 550 ± 64 |  | 119 ± 28 | 471 | −0.768 | −2 | 101 | > 10000 |  |  |  |  |  |  |  |  | 
CNCc1ccc(-c2cc(-c3nc(-c4ccc(S(=O)(=O)C(C)C)cc4)cnc3N)on2)cc1 [Compound A] |  |  |  |  |  | 121 ± 26 |  |  |  |  | 42 | abrogates the phosphorylation signal of CHK1 | strongly reduced | more effective at maintaining or reducing cell numbers over time | better at promoting cell death | more effective at maintaining or reducing cell numbers over time | more effective at maintaining or reducing cell numbers over time | reduction in cell number over time | larger percentage of cells are arrested in G2 phase | 
Nc1ccn([C@@H]2O[C@H](CO)[C@@H](O)C2(F)F)c(=O)n1 [Gemcitabine] |  |  |  |  |  |  |  |  |  |  |  |  |  |  |  |  |  |  |  | significantly increased

The next lines start with results.

pKa (pKa) | loading efficacy ([1]; Compound 1: at drug to lipid ratio higher than 400 g/mol) | Loading efficiency (%) [1] [%] | Drug/lipid ratio after loading [1] | Drug/lipid ratio after loading (loadability) ([1]; drug/lipid ratio before loading 600-800) | Liposome size, (mean ± SD) nm [1] [nm] | EC50 (ATR/ATRIP(h)) [nM] | Hill (ATR/ATRIP(h)) | Bottom (ATR/ATRIP(h)) | Top (ATR/ATRIP(h)) | IC50 (ATM(h)) [nM] | Structure (SMILES) | phosphorylation signal of CHK1 (S317 and S345) induced by Gemcitabine ([2]; ATR inhibitor 1 μM added to Gemcitabine 16 nM) | total and phospho-ATR signal ([2]; ATR inhibitor 1 μM, alone or with Gemcitabine 16 nM, up to 24 hrs) | cell numbers over time vs either agent in isolation (U2OS cells; 1 μM in combination with SN38 0.2 μM) | cell death vs either compound alone (U2OS cells; Compound A (1 μM) combined with Gemcitabine (0.04 μM)) | cell numbers over time vs either agent in isolation (NCI-H520 cells) | cell numbers over time vs either agent in isolation (NCI-H596 cells) | cell number over time vs either compound alone (MS-751 cells) | cell cycle stage profile vs controls (SUM149 cells) | phospho-CHK1 (S317 and S345) signaling ([2]; Gemcitabine 16 nM alone, over 24 hrs)
7.04 | formed aggregates | 98 | 369 | Not loadable. Formed aggregates | 122 ± 24 | 49.6 | −0.772 | −1 | 95 | 3860 | CC(CN(C)C)S(=O)(=O)c1ccc(-c2cnc(N)c(C(=O)Nc3ccccc3)n2)cc1 (stereo not shown) [Compound 1, 3-amino-6-(4-((1-(dimethylamino)propan-2-yl)sulfonyl)phenyl)-N-phenylpyrazine-2-carboxamide] |  |  |  |  |  |  |  |  | 
8.36 |  |  |  |  |  | 353 |  |  |  | 6870 | CN(C)CCNS(=O)(=O)c1ccc(-c2cnc(N)c(C(=O)Nc3ccccc3)n2)cc1 [Compound 4, 3-amino-6-(4-(((2-(dimethylamino)ethyl)-λ^2-azanyl)sulfonyl)phenyl)-N-phenylpyrazine-2-carboxamide] |  |  |  |  |  |  |  |  | 
